Measured values taken from US20230338529A1, “COMPOSITIONS FOR ALTERING A MICROGLIAL CELL, AND METHODS OF USE THEREFORE” (The Children's Medical Center Corporation, priority 2020, published 2023).

Key:
[1] = tested on: microglia; experiment: Microglia depletion in vivo with PLX3397, P2Y12-stained spinal cord; parameters: species or system mice; details: 7 days after PLX3397 treatment; P2Y12 staining
Experimental: Mice were given a lethal dose of anesthesia and transcardially perfused with PBS followed by 4% paraformaldehyde (PFA). PFA fixed tissues were incubated in 30% sucrose in PBS for 3 days at 4° C., embedded in OCT (Tissue-Tek), frozen in a dry ice/ethanol bath, and stored at -80° C. Transverse and sagittal sections were cut on a cryostat at 30 µm thick and stored at -20° C. until processed. Before staining, sections were warmed to room temperature and dried on a 37° C. slide warmer for 2 h. Sections then were treated with a blocking solution containing 10% normal donkey serum and 0.5% Triton-100 for 2 hours at room temperature. The primary antibodies used were: rabbit/goat anti-5-HT [Immunostar (20080/20079), 1: 5,000]; rabbit anti-GFAP [DAKO (Z0334), 1:600]; rat anti-GFAP [Thermo Fisher (13-0300), 1:600]; rabbit anti-P2Y12 [AnaSpec (AS-55043A), 1:200]; rat anti-CD68 [Bio-Rad (MCA1957), 1:600]; rabbit anti-Fibronectin [Millipore (AB2033), 1:200]; rabbit anti- Collagen I [Abcam (ab21286), 1:200]; chicken anti-GFP [Abcam (ab13970), 1:400]; goat anti-SPP1 [R&D (AF808), 1:400]; mouse anti-Ly6G/Ly6C [R&D (MAB1037), 1:200]; mouse anti-CSPG [Sigma-Aldrich (C8035), 1:200]; rabbit anti-CSPG [Sigma-Aldrich (L9393), 1:500]; rabbit anti-RFP [Abcam (ab34771), 1:400]. […]

[2] = tested on: neonatal spinal cord lesion after P2 crush; experiment: P2 spinal cord crush with microglia depletion: bridge formation, wound healing and axon regrowth by immunostaining; assay type: in vivo, mice
Experimental: Newborn pups (P2/P7) were anesthetized by isoflurane. A laminectomy was performed at T10 until the spinal cord was exposed completely from side-to-side. The spinal cord was then fully crushed for 2 seconds with forceps with a width of 0.1 mm in the last 5 mm of tips. The muscles and skin were sutured in layers with 6-0 sutures. EMLA topical cream was used for post-surgery analgesia. Animals then were warmed up and kept in a box containing the bedding from the original cage for at least 30 minutes. After that, the closed surgical site was rubbed with the feces from the mom using a Q-tip and then returned to the mom. Feeding was closely monitored in the first week after surgery. Nutra-Gel diets (Bio-Serv) or breeder chow diets were provided to avoid cannibalism. […] In case of bladder dysfunction, bladder emptying was performed once a day until bladder function was restored.
Mice were given a lethal dose of anesthesia and transcardially perfused with PBS followed by 4% paraformaldehyde (PFA). PFA fixed tissues were incubated in 30% sucrose in PBS for 3 days at 4° C., embedded in OCT (Tissue-Tek), frozen in a dry ice/ethanol bath, and stored at -80° C. Transverse and sagittal sections were cut on a cryostat at 30 µm thick and stored at -20° C. until processed. Before staining, sections were warmed to room temperature and dried on a 37° C. slide warmer for 2 h. Sections then were treated with a blocking solution containing 10% normal donkey serum and 0.5% Triton-100 for 2 hours at room temperature. The primary antibodies used were: rabbit/goat anti-5-HT [Immunostar (20080/20079), 1: 5,000]; rabbit anti-GFAP [DAKO (Z0334), 1:600]; rat anti-GFAP [Thermo Fisher (13-0300), 1:600]; rabbit anti-P2Y12 [AnaSpec (AS-55043A), 1:200]; rat anti-CD68 [Bio-Rad (MCA1957), 1:600]; rabbit anti-Fibronectin [Millipore (AB2033), 1:200]; rabbit anti- Collagen I [Abcam (ab21286), 1:200]; chicken anti-GFP [Abcam (ab13970), 1:400]; goat anti-SPP1 [R&D (AF808), 1:400]; mouse anti-Ly6G/Ly6C [R&D (MAB1037), 1:200]; mouse anti-CSPG [Sigma-Aldrich (C8035), 1:200]; rabbit anti-CSPG [Sigma-Aldrich (L9393), 1:500]; rabbit anti-RFP [Abcam (ab34771), 1:400]. Secondary antibodies included: Alexa Fluor 488-conjugated donkey anti chicken/rabbit; Alexa Fluor 555-conjugated donkey anti goat/rabbit/mouse and Dylight 650-conjugated donkey anti rat (all from Invitrogen). Spinal cord transverse and sagittal sections were imaged with a confocal laser-scanning microscope (Zeiss 700 or Zeiss 710). Figures showing large longitudinal spinal cord section were acquired using Zeiss 710 with image stitching and/or stack software.
The lesion site was defined and traced using Collagen I, Fibronectin, GFAP, P2Y12, CD68, CD31, CSPG, Laminin or Ly6G/Ly6C staining. Mice were perfused separately at 3, 7 or 14 days after spinal cord crush as described above to visualize lesion site. Cell nuclei were stained by incubation with DAPI for 30 seconds. Immunostaining intensity in the lesion site (100 µm width region in the epicenter) was measured using ImageJ software and normalized to the intact (proximal) region of the spinal cord.
To quantify the regenerating/late-arriving 5-HT/CST axons after spinal cord crush, sagittal sections through the lesion were stained with antibodies against 5-HT or RFP. Images of 5-6 sections for each animal were taken under a 10X objective and used for quantification. A series of rectangular segments 100 µm wide and 400 µm high covering the dorsal-ventral aspect of the cord were superimposed onto the sagittal sections, starting from lesion center up to a defined distance caudal. After subtracting the background, the pixel value of each segment was normalized by dividing with the rostral segment (1 mm rostral). The results were presented as a ratio at different distances (axons density index).
To deplete microglia in vivo, adult mice were given the CSF1R inhibitor PLX3397 mixed into AIN-76A standard chow (Research Diets). […]

FC(F)(F)c1ccc(CNc2ccc(Cc3c[nH]c4ncc(Cl)cc34)cn2)cn1 [PLX3397]
microglia depletion in neonatal spinal cord [1]: most microglia were depleted | bridge formation (fibronectin, CD68 staining) ([2]; P2 crush, 3 dpi): defects of bridge formation | wound healing and axon regeneration after neonatal crush (5-HT, GFAP staining) ([2]; P2 crush, 7 dpi): impairs wound healing and axon regeneration | GFAP+ reactive astrocytes in the lesion ([2]; P2 crush, 14 dpi): strong GFAP+ reactive astrocytes accumulating in the epicenter | accumulation of basal lamina components (CSPG, laminin) ([2]; P2 crush, 14 dpi): limited accumulations | axon growth at the lesion (5-HT) ([2]; P2 crush, 14 dpi): majority of axons stalled at the lesion epicenter | blood vessels in the lesion (CD31) ([2]; P2 crush, 14 dpi): blood vessels were absent | bridge formation between the two severed stumps ([2]; P2 injury model, 3 or 7 dpi): impaired bridge formation
